Measurements published in publication PMC8476002, “Bergamottin a CYP3A inhibitor found in grapefruit juice inhibits prostate cancer cell growth by downregulating androgen receptor signaling and promoting G0/G1 cell cycle block and apoptosis” (PLoS ONE, 2021).

Tests used:
PSA in MDAPCa2b cells = experiment: Western blotting of PSA, MDAPCa2b; format: cell-based, human; conditions: 10μM, 96 hours
Method: (§1) Cells were plated at 25–30% confluence when maintained in complete media. When the cells required DHT tretment and media replacement to charcoal stripped serum media (CSSM) they were plated at 35–40% confluence. Bergamottin is dissolved in DMSO (vehicle control) and the amount of DMSO at each treatment group was kept constant. After the completion of the treatment cells were washed in phosphate buffer (PBS) containing 2mMEDTA and 2mM EGTA and lysed in RIPA buffer (50 mM TRIS, 150 mM NaCl, 1% NP40, 0.5% sodium deoxycholate, 0.1% SDS, 2mM EDTA, 2mM EGTA) supplemented with protease and phosphatase inhibitors for total protein isolation. Protein estimation was performed using micro BCA assay and equal protein amponts were loaded on SDS-PAGE gels for western analysis. GAPDH was used as an internal control for total protein. Infrared fluorescent-labeled secondary antibodies were used for detection using Odyssey CLx. The bands were quantified using Odyssey software, which calculates pixel density and automatically takes an area adjacent to each band for background corrections.

MDAPCa2b cells = experiment: Cell cycle analysis (propidium iodide, flow cytometry), MDAPCa2b; format: cell-based, human
Method: (§2) Cell cycle analysis was performed after staining the cells with propidium iodide (PI). For long term bergamottin treatment (96 hrs.) cells were plated at 25–30% confluence and for short term bergamottin treatment (48 hrs.) they were plated at 30–35% confluence. After completion of specified treatment the cells were trypsinized washed with PBS and fixed in 70% ethanol and then stained with PI in nicoletti buffer (propidium iodide 50 μg/ml, 0.1% sodium citrate, 0.1% triton X-100, RNase 1 mg/ml, in DPBS). Cells were analyzed using C6 Accuri flow cytometer (Becton Dickinson, Mountainview, CA). FlowJo software was used to gate and remove the debris (gate on SSC and FSC) and aggregates (FL2 A and FL2H) from the analysis. Watson pragmatic and Dean-Jett -Fox methods was used to assign percentage frequencies to cells present in the different cell cycle stages.

[1] = system: RWPE1 cells (non transformed prostate epithelium); experiment: MTT growth assay, RWPE1; format: cell-based, human
Method: (§3) Growth of the cells was measured using a MTT assay. Cells were plated (2000 cells/ 96 well or 13,000 cells/ 24 well) for 48 hours then treated with bergamottin for 4 days (96 hours) and then incubated with MTT (3-(4,5-Dimethylthiazol- 2-yl)-2,5-Diphenyltetrazolium bromide) (4 mg/ml) for 2 h. at 37°C. DMSO (vehicle control for bergamottin) levels were compensated in each bergamottin treatment group. Cells were centrifuged at 2000 g for 10 min and the supernatant was discarded. The cell pellet was dissolved in 100/500 μl of DMSO depending on the well size. A plate reader was used to read the absorption at 540 nm. Experiments were performed in octuplet/quadruplet and repeated at least three times.

PSA in LNCaP cells = experiment: Western blotting of PSA, LNCaP; format: cell-based, human; conditions: 10μM, 96 hours
Method: as §1

total AR in LNCaP cells = experiment: Western blotting of total AR, LNCaP; format: cell-based, human; conditions: bergamottin 10μM, CSSM
Method: as §1

[2] = system: several other cancer cell types; set-up: method as in PMID 25130169, PMID 27222242, PMID 10552768, PMID 28726768, PMID 26911804; conditions: read-out: IC50 for growth of several other cancer cell types; cited from earlier work
[3] = system: nuclear AR in LNCaP cells; experiment: Cell fractionation, AR nuclear localization, LNCaP; format: cell-based, human; conditions: bergamottin 10μM, with and without DHT induction
Method: as §1
Nuclear and cytoplasmic cell fractionation was prepared using NE-PER Nuclear and cytoplasmic extraction kit from Thermo Scientific (Cat no.78833) and manufacturer’s instructions were followed. […]

LNCaP cells [4] = experiment: Clonogenic assay, LNCaP; format: cell-based, human; conditions: 5μM and 10μM, 3 weeks
Method: For clonogenic assay, cells were plated in 6 well plates (10,000 cells) for 48 h and then treated with indicated amounts of bergamottin and vehicle control (DMSO). After 3 weeks, the colonies were fixed, stained (0.75% crystal violet, 50% ethanol and 1.75% formaldehyde) and counted. The assay was repeated three times.

LNCaP cells [5] = experiment: MTT growth assay, LNCaP; format: cell-based; conditions: Homo sapiens
Method: as §3

[6] = system: total AR in MDAPCa2b cells; experiment: Western blotting of total AR, MDAPCa2b; format: cell-based, human; conditions: bergamottin 10μM, CSSM
Method: as §1

LNCaP cells [7] = experiment: Cell cycle analysis (propidium iodide, flow cytometry), LNCaP; format: cell-based, human
Method: as §2

CC(C)=CCC/C(C)=C/COc1c2ccoc2cc2oc(=O)ccc12 [bergamottin]
PSA levels (PSA in MDAPCa2b cells): significantly reduced PSA levels
G1 frequency, Dean-Jett-Fox (MDAPCa2b cells; Berg 5μM, 96 hrs.): 84.2 ±1.5%
G2 frequency, Dean-Jett-Fox (MDAPCa2b cells; Berg 5μM, 96 hrs.): 2.3 ±2.2%
G2 frequency, Watson Pragmatic (MDAPCa2b cells; Berg 5μM, 96 hrs.): 8.4 ±1.6%
S frequency, Dean-Jett-Fox (MDAPCa2b cells; Berg 5μM, 96 hrs.): 12.2 ±1.0%
S frequency, Watson Pragmatic (MDAPCa2b cells; Berg 5μM, 96 hrs.): 7.7 ±2.6%
G1 frequency, Dean-Jett-Fox (MDAPCa2b cells; Berg 10μM, 96 hrs.): 88.8 ±2.0%
G2 frequency, Dean-Jett-Fox (MDAPCa2b cells; Berg 10μM, 96 hrs.): 3.3 ±0.3%
G2 frequency, Watson Pragmatic (MDAPCa2b cells; Berg 10μM, 96 hrs.): 6.6 ±1.2%
S frequency, Dean-Jett-Fox (MDAPCa2b cells; Berg 10μM, 96 hrs.): 7.4 ±2.5%
S frequency, Watson Pragmatic (MDAPCa2b cells; Berg 10μM, 96 hrs.): 5.8 ±2.8%
G1 frequency, Dean-Jett-Fox (MDAPCa2b cells; Berg 20μM, 48 hrs.): 84.9 ±0.4%
G2 frequency, Dean-Jett-Fox (MDAPCa2b cells; Berg 20μM, 48 hrs.): 9.6 ±0.5%
G2 frequency, Watson Pragmatic (MDAPCa2b cells; Berg 20μM, 48 hrs.): 9.6 ±1.8%
S frequency, Dean-Jett-Fox (MDAPCa2b cells; Berg 20μM, 48 hrs.): 6.7 ±0.7%
S frequency, Watson Pragmatic (MDAPCa2b cells; Berg 20μM, 48 hrs.): 7.1 ±1.7%
G1 frequency, Dean-Jett-Fox (MDAPCa2b cells; Berg 30μM, 48 hrs.): 88.4 ±3.6%
G2 frequency, Dean-Jett-Fox (MDAPCa2b cells; Berg 30μM, 48 hrs.): 6.8 ±3.2%
G2 frequency, Watson Pragmatic (MDAPCa2b cells; Berg 30μM, 48 hrs.): 8.4 ±1.1%
S frequency, Dean-Jett-Fox (MDAPCa2b cells; Berg 30μM, 48 hrs.): 3.3 ±3.4%
S frequency, Watson Pragmatic (MDAPCa2b cells; Berg 30μM, 48 hrs.): 5.6 ±0.5%
inhibition at 10 µM ([1]; Homo sapiens, RWPE-1, RWPE1, 10μM): 60%
effect on growth at lower concentration ([1]; RWPE1, lower concentration): does not effect growth
PSA levels (PSA in LNCaP cells): significantly reduced PSA levels
downregulation of total AR levels (total AR in LNCaP cells): 50%
IC50 [2]: 30 to 100 µM
nuclear translocation of AR (cell fractionation) [3]: inhibited nuclear translocation of AR
number of colonies (LNCaP cells [4]): significantly reduced the number of colonies
inhibition at 10 µM (LNCaP cells [5]; 10μM): 60%
IC50 (LNCaP cells [5]; treatment 96 hours (methods) / 120 hours (Fig 1 legend), read-out: bergamottin concentration giving 50% growth reduction): 2.4 µM
downregulation of total AR levels [6]: 50%
G1 frequency, Dean-Jett-Fox (LNCaP cells [7]; Berg 5μM, 96 hrs.): 90.81 ±1.7%
G2 frequency, Dean-Jett-Fox (LNCaP cells [7]; Berg 5μM, 96 hrs.): 10.53 ±1.0%
G2 frequency, Watson Pragmatic (LNCaP cells [7]; Berg 5μM, 96 hrs.): 8.59 ±3.0%
S frequency, Dean-Jett-Fox (LNCaP cells [7]; Berg 5μM, 96 hrs.): -0.3 ±2.3%
S frequency, Watson Pragmatic (LNCaP cells [7]; Berg 5μM, 96 hrs.): 0.32±4.3%
G1 frequency, Dean-Jett-Fox (LNCaP cells [7]; Berg 10μM, 96 hrs.): 95.1 ±3.4%
G2 frequency, Dean-Jett-Fox (LNCaP cells [7]; Berg 10μM, 96 hrs.): 0.22 ±0.4%
G2 frequency, Watson Pragmatic (LNCaP cells [7]; Berg 10μM, 96 hrs.): 10.07 ±0.9%
S frequency, Dean-Jett-Fox (LNCaP cells [7]; Berg 10μM, 96 hrs.): -0.03 ±1.1%
S frequency, Watson Pragmatic (LNCaP cells [7]; Berg 10μM, 96 hrs.): -1.17 ±4.5%
G1 frequency, Dean-Jett-Fox (LNCaP cells [7]; Berg 20μM, 48 hrs.): 86.7 ±2.3%
G2 frequency, Dean-Jett-Fox (LNCaP cells [7]; Berg 20μM, 48 hrs.): 15.3 ±1.0%
G2 frequency, Watson Pragmatic (LNCaP cells [7]; Berg 20μM, 48 hrs.): 13.4 ±4.3%
S frequency, Dean-Jett-Fox (LNCaP cells [7]; Berg 20μM, 48 hrs.): -9.8 ±3.0%
S frequency, Watson Pragmatic (LNCaP cells [7]; Berg 20μM, 48 hrs.): 4.8 ±3.5%
G1 frequency, Dean-Jett-Fox (LNCaP cells [7]; Berg 30μM, 48 hrs.): 96.2 ±3.6%
G2 frequency, Dean-Jett-Fox (LNCaP cells [7]; Berg 30μM, 48 hrs.): 7.7 ±0.9%
G2 frequency, Watson Pragmatic (LNCaP cells [7]; Berg 30μM, 48 hrs.): 6.3 ±2.3%
S frequency, Dean-Jett-Fox (LNCaP cells [7]; Berg 30μM, 48 hrs.): -8.4 ±4.5%
S frequency, Watson Pragmatic (LNCaP cells [7]; Berg 30μM, 48 hrs.): 3.7 ±2.6%
